# Assay results from patent US20170291905A1, “ARGININE […] INHIBITORS AND USES THEREOF” (Epizyme, Inc., priority 2014, published 2017).
# pIC50: −log10 of the molar value.
# Target: T1, full-length human PRMT1 isoform 1 (GST-tagged) (Homo sapiens, UniProt Q99873)
# T1 construct: GST-tagged PRMT1 was eluted with 50 mM Tris, 2 mM glutathione, pH 7.8, dialysed in buffer A and concentrated; made in house; host or cells: High Five insect cells (baculovirus)
# Assay: PRMT1 biochemical assay (3H-SAM Flashplate, histone H4 36-50 peptide)
# Conditions: 0.5 nM PRMT1, 30 min preincubation, 20 nM peptide
# Outline: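 GST-PRMT1 (0.5 nM) preincubated 30 min at room temperature with compound in bicine buffer pH 7.6. Reaction then run with 200 nM 3H-SAM plus 1.5 uM SAM and 20 nM biotinylated H4 36-50 peptide, 2% DMSO. Stopped with excess cold SAM, and methylated peptide captured on streptavidin Flashplates for counting; % inhibition versus DMSO and 1 mM SAH controls, 3- or 4-parameter fit.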
# T1 sequence (Q99873 with tags, fused parts or gaps): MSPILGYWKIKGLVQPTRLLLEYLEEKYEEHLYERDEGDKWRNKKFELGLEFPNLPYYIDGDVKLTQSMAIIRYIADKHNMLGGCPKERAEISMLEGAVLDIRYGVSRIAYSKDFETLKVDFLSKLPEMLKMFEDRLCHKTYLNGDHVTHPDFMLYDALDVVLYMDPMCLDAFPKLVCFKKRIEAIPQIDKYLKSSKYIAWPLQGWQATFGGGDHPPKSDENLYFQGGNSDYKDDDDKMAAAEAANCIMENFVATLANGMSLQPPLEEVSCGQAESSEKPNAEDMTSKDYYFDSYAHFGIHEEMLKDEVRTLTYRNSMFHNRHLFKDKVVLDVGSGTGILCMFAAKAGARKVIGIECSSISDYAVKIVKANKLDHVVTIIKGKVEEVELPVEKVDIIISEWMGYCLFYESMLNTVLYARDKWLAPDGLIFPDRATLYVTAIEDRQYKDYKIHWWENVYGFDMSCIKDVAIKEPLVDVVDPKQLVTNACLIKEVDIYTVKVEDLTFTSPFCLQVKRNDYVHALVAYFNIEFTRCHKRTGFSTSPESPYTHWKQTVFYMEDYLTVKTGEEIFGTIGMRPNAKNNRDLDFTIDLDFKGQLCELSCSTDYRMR
row,SMILES,pIC50
1,"CCOCCOCC1(COCCOCC)CCC(c2n[nH]cc2CN(C)CCNC)CC1 [compound 39, N1-((3-(4,4-bis((2-ethoxyethoxy)methyl)cyclohexyl)-1H-pyrazol-4-yl)methyl)-N1,N2-dimethylethane-1,2-diamine]",7.51
2,CNCCN(C)Cc1c[nH]nc1C1CCC(COCCC2CCOCC2)(COCCC2CCOCC2)CC1 [compound 40],7.68
3,"CN(C)CCN(C)Cc1c[nH]nc1[C@H]1CC[C@@]2(CC1)CC(C)(C)CO2 [compound 42, N1-((3-((5S,8S)-3,3-dimethyl-1-oxaspiro[4.5]decan-8-yl)-1H-pyrazol-4-yl)methyl)-N1,N2,N2-trimethylethane-1,2-diamine]",7.50
4,"CN(C)CCN(C)Cc1c[nH]nc1[C@H]1CC[C@]2(CC1)CC(C)(C)CO2 [compound 43, N1-((3-((5r,8r)-3,3-dimethyl-1-oxaspiro[4.5]decan-8-yl)-1H-pyrazol-4-yl)methyl)-N1,N2,N2-trimethylethane-1,2-diamine]",7.24
5,"CNCCN(C)Cc1c[nH]nc1C1CCC(CO)(CO)CC1 [compound 44, (4-(4-((methyl(2-(methylamino)ethyl)amino)methyl)-1H-pyrazol-3-yl)cyclohexane-1,1-diyl)dimethanol]",7.67
6,CNCCN(C)Cc1c[nH]nc1C1CCC(COC)(COCC2CCOCC2)CC1 (stereo not drawn) [compound 45],7.48
7,"CNCCN(C)Cc1c[nH]nc1C1=CCC2(CC1)CC(C)(C)CO2 (stereo not drawn) [compound 46, N1-((3-(3,3-dimethyl-1-oxaspiro[4.5]dec-7-en-8-yl)-1H-pyrazol-4-yl)methyl)-N1,N2-dimethylethane-1,2-diamine]",7.70
8,"CCC1(CC)C[C@]2(CC[C@@H](c3n[nH]cc3CN(C)CCNC)CC2)NC1=O [compound 48, (5r,8r)-3,3-diethyl-8-(4-((methyl(2-(methylamino)ethyl)amino)methyl)-1H-pyrazol-3-yl)-1-azaspiro[4.5]decan-2-one]",7.45

# Other lines, results leading:
row,pIC50,SMILES
1,8.32,CC[C@H]1CC[C@@H](c2n[nH]cc2CN(C)CCNC)CC1 [compound 1]
2,8.36,"CNCCN(C)Cc1c[nH]nc1C1CCC(COCC2CC2)(COCC2CC2)CC1 [compound 41, N1-((3-(4,4-bis((cyclopropylmethoxy)methyl)cyclohexyl)-1H-pyrazol-4-yl)methyl)-N1,N2-dimethylethane-1,2-diamine]"
3,7.82,"CCC1(CC)C[C@]2(CC[C@H](c3n[nH]cc3CN(C)CCNC)CC2)NC1=O [compound 47, (5s,8s)-3,3-diethyl-8-(4-((methyl(2-(methylamino)ethyl)amino)methyl)-1H-pyrazol-3-yl)-1-azaspiro[4.5]decan-2-one]"
4,7.71,"CNCCN(C)Cc1ccnn1[C@H]1CC[C@@]2(CC1)CC(C)(C)CO2 [compound 49, N1-((1-((5s,8s)-3,3-dimethyl-1-oxaspiro[4.5]decan-8-yl)-1H-pyrazol-5-yl)methyl)-N1,N2-dimethylethane-1,2-diamine]"
